Measurements as given in the supplement of paper PMC10307832.

Key:
Assay in all cases: relative viability (nuclei count vs DMSO), 5 days (fraction); higher = more cells survive
Gemcitabine + OSI-027 = compound: Nc1ccn([C@@H]2O[C@H](CO)[C@@H](O)C2(F)F)c(=O)n1 [Gemcitabine] + COc1cccc2cc(-c3nc([C@H]4CC[C@H](C(=O)O)CC4)n4ncnc(N)c34)[nH]c12 [OSI-027] (partner 0.5 µM)
Procedure, shortened: (§1)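 Values are medians from duplicate plates. Each reflects relative viability, defined as the nuclei count of treated wells over that of vehicle wells. Lung cancer cell lines in 1536-well plates were pin-tool dosed one day after seeding with one drug alone or with a fixed anchor-drug dose plus five library-drug doses (not always all listed) in √10 steps, then fixed, stained and imaged at 4× after 5 days.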

Gemcitabine + Luminespib = compound: Nc1ccn([C@@H]2O[C@H](CO)[C@@H](O)C2(F)F)c(=O)n1 [Gemcitabine] + CCNC(=O)c1noc(-c2cc(C(C)C)c(O)cc2O)c1-c1ccc(CN2CCOCC2)cc1 [Luminespib] (partner 0.01 µM)
Procedure, shortened: as §1

Gemcitabine + Lapatinib = compound: Nc1ccn([C@@H]2O[C@H](CO)[C@@H](O)C2(F)F)c(=O)n1 [Gemcitabine] + CS(=O)(=O)CCNCc1ccc(-c2ccc3ncnc(Nc4ccc(OCc5cccc(F)c5)c(Cl)c4)c3c2)o1 [Lapatinib] (partner 2 µM)
Procedure, shortened: as §1

Gemcitabine + Linsitinib = compound: Nc1ccn([C@@H]2O[C@H](CO)[C@@H](O)C2(F)F)c(=O)n1 [Gemcitabine] + C[C@]1(O)C[C@@H](c2nc(-c3ccc4ccc(-c5ccccc5)nc4c3)c3c(N)nccn32)C1 [Linsitinib] (partner 1 µM)
Procedure, shortened: as §1

Cell Line | relative viability (Gemcitabine + OSI-027; first compound 0.001 µM) | relative viability (Gemcitabine + OSI-027; first compound 0.003162 µM) | relative viability (Gemcitabine + OSI-027; first compound 0.01 µM) | relative viability (Gemcitabine + OSI-027; first compound 0.03162 µM) | relative viability (Gemcitabine + OSI-027; first compound 0.1 µM) | relative viability (Gemcitabine + Luminespib; first compound 0.001 µM) | relative viability (Gemcitabine + Luminespib; first compound 0.003162 µM) | relative viability (Gemcitabine + Luminespib; first compound 0.01 µM) | relative viability (Gemcitabine + Luminespib; first compound 0.03162 µM) | relative viability (Gemcitabine + Luminespib; first compound 0.1 µM) | relative viability (Gemcitabine + Lapatinib; first compound 0.001 µM) | relative viability (Gemcitabine + Lapatinib; first compound 0.003162 µM) | relative viability (Gemcitabine + Lapatinib; first compound 0.01 µM) | relative viability (Gemcitabine + Lapatinib; first compound 0.03162 µM) | relative viability (Gemcitabine + Lapatinib; first compound 0.1 µM) | relative viability (Gemcitabine + Linsitinib; first compound 0.001 µM) | relative viability (Gemcitabine + Linsitinib; first compound 0.003162 µM) | relative viability (Gemcitabine + Linsitinib; first compound 0.01 µM) | relative viability (Gemcitabine + Linsitinib; first compound 0.03162 µM) | relative viability (Gemcitabine + Linsitinib; first compound 0.1 µM)
NCI-H358 | 0.523 | 0.114 | 0.0702 | 0.0815 | 0.0642 | 0.778 | 0.294 | 0.126 | 0.121 | 0.114 | 0.436 | 0.398 | 0.203 | 0.212 | 0.156 | 0.653 | 0.327 | 0.186 | 0.23 | 0.157
SK-MES-1 | 0.367 | 0.195 | 0.142 | 0.122 | 0.127 | 0.748 | 0.328 | 0.166 | 0.239 | 0.153 | 0.499 | 0.468 | 0.295 | 0.201 | 0.203 | 1.07 | 0.555 | 0.292 | 0.197 | 0.18
NCI-H1666 | 0.87 | 0.821 | 0.752 | 0.5 | 0.479 | 1.01 | 0.937 | 0.957 | 0.595 | 0.393 | 0.617 | 0.708 | 0.512 | 0.265 | 0.239 | 0.789 | 0.882 | 0.435 | 0.286 | 0.285
NCI-H1355 | 0.362 | 0.28 | 0.159 | 0.178 | 0.173 | 0.724 | 0.62 | 0.24 | 0.22 | 0.213 | 0.884 | 0.825 | 0.304 | 0.153 | 0.153 | 0.816 | 0.606 | 0.221 | 0.123 | 0.129
HCC-827 | 0.802 | 0.477 | 0.444 | 0.159 | 0.159 | 0.777 | 0.365 | 0.386 | 0.259 | 0.16 | 0.181 | 0.177 | 0.18 | 0.138 | 0.126 | 0.96 | 0.79 | 0.546 | 0.327 | 0.252
HARA | 0.734 | 0.68 | 0.388 | 0.175 | 0.0508 | 0.683 | 0.847 | 0.719 | 0.0504 | 0.0409 | 0.77 | 0.836 | 0.794 | 0.604 | 0.137 | 1.05 | 1.01 | 0.832 | 0.293 | 0.0949
NCI-H322M | 0.348 | 0.376 | 0.258 | 0.256 | 0.278 | 0.73 | 0.445 | 0.334 | 0.36 | 0.344 | 0.61 | 0.362 | 0.239 | 0.227 | 0.217 | 0.777 | 0.474 | 0.3 | 0.274 | 0.267
NCI-H2347 | 0.434 | 0.431 | 0.307 | 0.242 | 0.24 | 0.412 | 0.513 | 0.302 | 0.448 | 0.282 | 0.952 | 0.896 | 0.646 | 0.655 | 0.467 | 1 | 0.918 | 0.88 | 0.606 | 0.458
NCI-H1975 | 0.867 | 0.839 | 0.327 | 0.148 | 0.125 | 0.173 | 0.158 | 0.154 | 0.182 | 0.13 | 0.983 | 1.1 | 0.725 | 0.245 | 0.179 | 1.1 | 1.04 | 0.586 | 0.218 | 0.191
UMC-11 | 0.474 | 0.474 | 0.478 | 0.352 | 0.197 | 1.18 | 1.15 | 0.834 | 0.829 | 0.47 | 1.04 | 1.06 | 0.98 | 0.879 | 0.208 | 0.993 | 1.03 | 0.963 | 0.956 | 0.382
ABC-1 | 0.364 | – | 0.218 | 0.252 | 0.116 | 0.618 | 1.05 | 0.371 | 0.25 | 0.151 | 1.14 | 1.2 | 0.95 | 0.88 | 0.664 | 0.92 | 1.01 | 0.689 | 0.286 | 0.243
A-427 | 0.401 | 0.338 | 0.148 | 0.17 | 0.113 | 1 | 0.899 | 0.443 | 0.195 | 0.171 | 1.09 | 0.686 | 0.808 | 0.199 | 0.13 | 1.06 | 1.03 | 0.895 | 0.209 | 0.138
LCLC-97TM1 | 0.468 | 0.524 | 0.138 | 0.121 | 0.116 | 0.813 | 0.86 | 0.334 | 0.202 | 0.129 | 0.829 | 0.683 | 0.178 | 0.0781 | 0.0994 | 0.147 | 0.159 | 0.117 | 0.104 | 0.136
HCC-15 | 0.773 | 0.624 | 0.578 | 0.142 | 0.0829 | 0.305 | 0.234 | 0.32 | 0.15 | 0.0821 | 0.918 | 0.88 | 0.829 | 0.55 | 0.121 | 0.981 | 0.893 | 0.848 | 0.217 | 0.0888
NCI-H647 | 0.408 | 0.128 | 0.0727 | 0.0897 | 0.0704 | 0.166 | 0.118 | 0.0907 | 0.0871 | 0.0761 | 0.742 | 0.28 | 0.0986 | 0.0734 | 0.0451 | 1.27 | 0.382 | 0.0832 | 0.0779 | 0.0445
SW 1573 | 0.512 | 0.381 | 0.0711 | 0.0797 | 0.0431 | 0.192 | 0.166 | 0.0849 | 0.154 | 0.112 | 1.07 | 0.994 | 0.681 | 0.148 | 0.082 | 0.904 | 0.726 | 0.148 | 0.127 | 0.0847
